ChEMBL document CHEMBL5442219

Experiments:
Details in all cases: Compound concentration 10 µM
[1] = biological target: T1, 5-hydroxytryptamine receptor 1A (Homo sapiens) (UniProt P08908)
T1 sequence (whole entry): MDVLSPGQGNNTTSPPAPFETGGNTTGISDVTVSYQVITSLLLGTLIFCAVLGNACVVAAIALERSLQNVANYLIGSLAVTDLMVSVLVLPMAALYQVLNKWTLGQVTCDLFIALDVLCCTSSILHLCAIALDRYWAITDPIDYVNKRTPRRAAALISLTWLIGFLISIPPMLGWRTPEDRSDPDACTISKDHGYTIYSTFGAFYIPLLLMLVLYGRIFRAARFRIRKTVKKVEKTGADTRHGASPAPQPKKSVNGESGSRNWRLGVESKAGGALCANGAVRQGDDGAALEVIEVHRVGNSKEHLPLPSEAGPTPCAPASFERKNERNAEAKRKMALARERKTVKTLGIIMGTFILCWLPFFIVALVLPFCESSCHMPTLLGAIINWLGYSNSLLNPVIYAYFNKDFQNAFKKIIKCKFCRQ

[2] = biological target: D(1B) dopamine receptor (Homo sapiens) (UniProt P21918)
D(1B) dopamine receptor (Homo sapiens), sequence (P21918 whole entry): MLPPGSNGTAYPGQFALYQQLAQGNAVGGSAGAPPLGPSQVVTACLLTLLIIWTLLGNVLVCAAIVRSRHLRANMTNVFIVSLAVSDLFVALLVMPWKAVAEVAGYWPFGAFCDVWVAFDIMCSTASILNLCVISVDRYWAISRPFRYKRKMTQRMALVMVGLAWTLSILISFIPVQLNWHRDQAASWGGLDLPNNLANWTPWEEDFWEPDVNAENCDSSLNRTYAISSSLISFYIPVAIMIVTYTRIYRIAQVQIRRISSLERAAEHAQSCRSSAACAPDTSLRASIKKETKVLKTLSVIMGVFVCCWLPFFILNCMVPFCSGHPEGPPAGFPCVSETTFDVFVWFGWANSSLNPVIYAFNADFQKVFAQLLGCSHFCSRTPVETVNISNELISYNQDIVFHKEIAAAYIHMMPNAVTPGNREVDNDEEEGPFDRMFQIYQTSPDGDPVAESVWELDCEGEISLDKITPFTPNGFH

[3] = biological target: 5-hydroxytryptamine receptor 1B (Homo sapiens) (UniProt P28222)
5-hydroxytryptamine receptor 1B (Homo sapiens), sequence (P28222 whole entry): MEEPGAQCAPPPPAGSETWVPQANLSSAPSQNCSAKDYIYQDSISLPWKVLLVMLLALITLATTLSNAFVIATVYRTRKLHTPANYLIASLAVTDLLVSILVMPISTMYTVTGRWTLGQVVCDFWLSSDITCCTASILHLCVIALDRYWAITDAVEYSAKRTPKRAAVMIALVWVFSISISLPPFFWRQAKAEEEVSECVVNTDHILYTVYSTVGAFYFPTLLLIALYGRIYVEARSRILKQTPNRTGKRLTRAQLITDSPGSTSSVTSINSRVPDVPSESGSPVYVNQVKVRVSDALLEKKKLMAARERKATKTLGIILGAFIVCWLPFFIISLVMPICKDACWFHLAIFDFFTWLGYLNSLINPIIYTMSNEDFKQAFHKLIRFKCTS

[4] = biological target: Histamine H1 receptor (Homo sapiens) (UniProt P35367)
Histamine H1 receptor (Homo sapiens), sequence (P35367 whole entry): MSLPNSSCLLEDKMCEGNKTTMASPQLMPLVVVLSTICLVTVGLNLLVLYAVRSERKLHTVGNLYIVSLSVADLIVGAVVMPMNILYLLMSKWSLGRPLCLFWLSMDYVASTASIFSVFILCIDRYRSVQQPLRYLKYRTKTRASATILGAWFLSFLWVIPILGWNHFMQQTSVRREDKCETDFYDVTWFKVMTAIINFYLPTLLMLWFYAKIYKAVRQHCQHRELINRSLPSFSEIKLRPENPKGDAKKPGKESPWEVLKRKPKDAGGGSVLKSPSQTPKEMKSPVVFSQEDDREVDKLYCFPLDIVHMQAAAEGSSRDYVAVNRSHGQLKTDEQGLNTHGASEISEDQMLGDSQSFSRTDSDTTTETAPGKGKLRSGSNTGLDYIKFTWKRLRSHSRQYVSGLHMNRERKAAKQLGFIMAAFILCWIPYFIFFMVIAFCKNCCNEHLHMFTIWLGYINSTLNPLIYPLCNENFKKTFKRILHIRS

[5] = biological target: 5-hydroxytryptamine receptor 2B (Homo sapiens) (UniProt P41595)
5-hydroxytryptamine receptor 2B (Homo sapiens), sequence (P41595 whole entry): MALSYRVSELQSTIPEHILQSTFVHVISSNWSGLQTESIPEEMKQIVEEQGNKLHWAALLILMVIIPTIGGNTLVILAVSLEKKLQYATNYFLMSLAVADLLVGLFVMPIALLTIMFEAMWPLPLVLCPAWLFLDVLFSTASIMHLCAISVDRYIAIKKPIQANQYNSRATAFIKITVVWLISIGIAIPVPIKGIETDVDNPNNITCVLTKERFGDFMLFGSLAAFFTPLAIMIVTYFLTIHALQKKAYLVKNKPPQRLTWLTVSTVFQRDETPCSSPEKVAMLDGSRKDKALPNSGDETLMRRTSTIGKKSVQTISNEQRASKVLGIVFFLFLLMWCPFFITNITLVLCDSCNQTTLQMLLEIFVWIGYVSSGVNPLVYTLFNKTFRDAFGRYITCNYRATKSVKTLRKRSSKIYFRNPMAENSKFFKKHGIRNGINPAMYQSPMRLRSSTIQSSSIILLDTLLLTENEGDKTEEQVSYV

[6] = biological target: Beta-1 adrenergic receptor (Homo sapiens) (UniProt P08588)
Beta-1 adrenergic receptor (Homo sapiens), sequence (P08588 whole entry, looked up): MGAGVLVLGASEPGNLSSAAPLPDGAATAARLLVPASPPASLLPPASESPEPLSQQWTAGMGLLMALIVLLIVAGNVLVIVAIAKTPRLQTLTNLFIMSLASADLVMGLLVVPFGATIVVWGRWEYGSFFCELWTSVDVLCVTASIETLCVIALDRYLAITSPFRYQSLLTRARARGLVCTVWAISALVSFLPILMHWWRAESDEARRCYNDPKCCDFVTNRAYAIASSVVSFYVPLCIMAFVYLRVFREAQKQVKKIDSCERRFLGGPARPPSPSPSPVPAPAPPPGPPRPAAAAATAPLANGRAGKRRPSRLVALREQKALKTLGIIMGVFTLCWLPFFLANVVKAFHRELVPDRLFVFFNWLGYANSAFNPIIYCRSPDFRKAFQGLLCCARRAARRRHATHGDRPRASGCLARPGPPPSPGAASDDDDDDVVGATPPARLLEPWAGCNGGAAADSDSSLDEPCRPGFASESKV

[7] = biological target: T2, Alpha-2A adrenergic receptor (Homo sapiens) (UniProt P08913)
T2 sequence (whole entry): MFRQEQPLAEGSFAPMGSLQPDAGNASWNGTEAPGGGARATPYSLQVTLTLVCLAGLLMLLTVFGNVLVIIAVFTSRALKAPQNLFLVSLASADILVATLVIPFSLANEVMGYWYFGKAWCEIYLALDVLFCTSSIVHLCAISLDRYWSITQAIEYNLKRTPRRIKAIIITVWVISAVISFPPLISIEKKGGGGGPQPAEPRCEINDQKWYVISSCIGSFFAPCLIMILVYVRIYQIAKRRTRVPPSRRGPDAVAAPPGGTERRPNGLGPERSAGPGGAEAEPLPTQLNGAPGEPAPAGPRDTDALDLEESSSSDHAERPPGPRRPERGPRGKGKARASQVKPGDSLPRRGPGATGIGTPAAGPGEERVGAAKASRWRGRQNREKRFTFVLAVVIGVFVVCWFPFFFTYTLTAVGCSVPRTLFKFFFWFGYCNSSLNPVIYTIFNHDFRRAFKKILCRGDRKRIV

[8] = biological target: Histamine H4 receptor (Homo sapiens) (UniProt Q9H3N8)
Histamine H4 receptor (Homo sapiens), sequence (Q9H3N8 whole entry): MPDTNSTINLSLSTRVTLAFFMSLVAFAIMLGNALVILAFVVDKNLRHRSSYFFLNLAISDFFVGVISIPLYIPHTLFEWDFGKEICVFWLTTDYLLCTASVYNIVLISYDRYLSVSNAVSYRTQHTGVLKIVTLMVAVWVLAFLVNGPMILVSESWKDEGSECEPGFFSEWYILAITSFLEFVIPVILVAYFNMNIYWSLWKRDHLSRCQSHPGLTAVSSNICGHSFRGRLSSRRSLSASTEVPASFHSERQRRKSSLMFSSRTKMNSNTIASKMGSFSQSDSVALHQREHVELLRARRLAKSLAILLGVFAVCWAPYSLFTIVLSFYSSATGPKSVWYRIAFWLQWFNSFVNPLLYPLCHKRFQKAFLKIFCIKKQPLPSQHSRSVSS

[9] = biological target: T3, D(4) dopamine receptor (Homo sapiens) (UniProt P21917)
T3 sequence (whole entry): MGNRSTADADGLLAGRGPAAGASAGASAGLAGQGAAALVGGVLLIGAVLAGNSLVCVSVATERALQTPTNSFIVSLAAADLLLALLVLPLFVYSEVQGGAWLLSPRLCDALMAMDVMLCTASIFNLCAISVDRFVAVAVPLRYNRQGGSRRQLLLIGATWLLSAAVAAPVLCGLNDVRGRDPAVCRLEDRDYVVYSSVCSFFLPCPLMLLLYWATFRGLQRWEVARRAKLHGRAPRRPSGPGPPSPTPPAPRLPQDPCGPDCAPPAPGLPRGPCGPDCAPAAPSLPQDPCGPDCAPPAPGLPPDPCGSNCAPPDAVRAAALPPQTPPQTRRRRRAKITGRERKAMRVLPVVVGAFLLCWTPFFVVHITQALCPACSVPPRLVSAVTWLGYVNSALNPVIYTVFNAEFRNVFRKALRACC

[10] = biological target: T4, Alpha-2C adrenergic receptor (Homo sapiens) (UniProt P18825)
T4 sequence (whole entry): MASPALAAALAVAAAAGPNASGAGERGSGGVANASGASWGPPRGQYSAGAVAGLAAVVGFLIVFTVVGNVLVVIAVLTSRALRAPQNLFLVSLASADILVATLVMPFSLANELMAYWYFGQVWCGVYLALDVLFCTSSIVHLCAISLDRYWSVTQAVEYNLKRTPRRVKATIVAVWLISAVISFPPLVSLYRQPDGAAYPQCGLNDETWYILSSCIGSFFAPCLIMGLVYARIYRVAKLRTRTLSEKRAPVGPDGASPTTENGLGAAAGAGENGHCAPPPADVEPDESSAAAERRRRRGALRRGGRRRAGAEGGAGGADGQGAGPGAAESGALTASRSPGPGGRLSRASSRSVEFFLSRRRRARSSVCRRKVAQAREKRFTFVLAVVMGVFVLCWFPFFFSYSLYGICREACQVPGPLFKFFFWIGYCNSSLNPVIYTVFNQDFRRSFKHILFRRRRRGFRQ

[11] = biological target: 5-hydroxytryptamine receptor 7 (Homo sapiens) (UniProt P34969)
5-hydroxytryptamine receptor 7 (Homo sapiens), sequence (P34969 whole entry): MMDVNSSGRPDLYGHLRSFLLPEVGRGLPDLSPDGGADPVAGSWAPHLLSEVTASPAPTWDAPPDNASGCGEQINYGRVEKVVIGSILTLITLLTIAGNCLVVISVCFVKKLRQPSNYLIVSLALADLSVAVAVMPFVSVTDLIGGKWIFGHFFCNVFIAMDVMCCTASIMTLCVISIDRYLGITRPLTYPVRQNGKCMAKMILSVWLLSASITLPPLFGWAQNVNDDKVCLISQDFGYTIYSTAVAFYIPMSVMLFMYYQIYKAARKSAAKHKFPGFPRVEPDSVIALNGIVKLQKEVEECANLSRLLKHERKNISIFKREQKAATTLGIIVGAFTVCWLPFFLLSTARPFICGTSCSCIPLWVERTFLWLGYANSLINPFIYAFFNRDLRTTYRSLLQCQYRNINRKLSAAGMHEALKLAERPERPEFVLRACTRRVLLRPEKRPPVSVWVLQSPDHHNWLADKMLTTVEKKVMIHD

[12] = biological target: Sodium-dependent serotonin transporter (Homo sapiens) (UniProt P31645)
Sodium-dependent serotonin transporter (Homo sapiens), sequence (P31645 whole entry, looked up): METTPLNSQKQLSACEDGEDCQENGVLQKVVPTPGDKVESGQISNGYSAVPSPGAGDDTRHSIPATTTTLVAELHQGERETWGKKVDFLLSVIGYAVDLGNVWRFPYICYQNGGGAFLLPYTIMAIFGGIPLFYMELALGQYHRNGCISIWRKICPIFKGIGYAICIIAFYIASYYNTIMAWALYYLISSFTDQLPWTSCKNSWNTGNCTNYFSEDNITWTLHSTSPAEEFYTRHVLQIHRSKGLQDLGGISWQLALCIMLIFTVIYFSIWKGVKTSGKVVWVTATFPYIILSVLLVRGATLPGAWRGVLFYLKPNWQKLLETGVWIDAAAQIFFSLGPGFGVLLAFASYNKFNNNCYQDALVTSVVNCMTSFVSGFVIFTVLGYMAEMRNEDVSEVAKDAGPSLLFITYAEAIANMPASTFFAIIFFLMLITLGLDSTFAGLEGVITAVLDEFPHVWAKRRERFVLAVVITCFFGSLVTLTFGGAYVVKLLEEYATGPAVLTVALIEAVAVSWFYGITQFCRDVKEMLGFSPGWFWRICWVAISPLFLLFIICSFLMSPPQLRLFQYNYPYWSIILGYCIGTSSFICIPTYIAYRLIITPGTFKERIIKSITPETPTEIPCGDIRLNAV

[13] = biological target: 5-hydroxytryptamine receptor 5A (Homo sapiens) (UniProt P47898)
5-hydroxytryptamine receptor 5A (Homo sapiens), sequence (P47898 whole entry): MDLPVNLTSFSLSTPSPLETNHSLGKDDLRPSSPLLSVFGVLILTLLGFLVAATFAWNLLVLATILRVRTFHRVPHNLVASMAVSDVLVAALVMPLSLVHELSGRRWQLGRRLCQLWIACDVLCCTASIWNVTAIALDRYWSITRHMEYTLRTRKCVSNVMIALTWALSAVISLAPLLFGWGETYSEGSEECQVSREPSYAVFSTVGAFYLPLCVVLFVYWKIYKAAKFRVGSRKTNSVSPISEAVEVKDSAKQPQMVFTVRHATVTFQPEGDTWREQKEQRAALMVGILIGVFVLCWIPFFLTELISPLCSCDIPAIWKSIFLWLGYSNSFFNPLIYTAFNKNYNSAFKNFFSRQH

[14] = biological target: Beta-3 adrenergic receptor (Homo sapiens) (UniProt P13945)
Beta-3 adrenergic receptor (Homo sapiens), sequence (P13945 whole entry, looked up): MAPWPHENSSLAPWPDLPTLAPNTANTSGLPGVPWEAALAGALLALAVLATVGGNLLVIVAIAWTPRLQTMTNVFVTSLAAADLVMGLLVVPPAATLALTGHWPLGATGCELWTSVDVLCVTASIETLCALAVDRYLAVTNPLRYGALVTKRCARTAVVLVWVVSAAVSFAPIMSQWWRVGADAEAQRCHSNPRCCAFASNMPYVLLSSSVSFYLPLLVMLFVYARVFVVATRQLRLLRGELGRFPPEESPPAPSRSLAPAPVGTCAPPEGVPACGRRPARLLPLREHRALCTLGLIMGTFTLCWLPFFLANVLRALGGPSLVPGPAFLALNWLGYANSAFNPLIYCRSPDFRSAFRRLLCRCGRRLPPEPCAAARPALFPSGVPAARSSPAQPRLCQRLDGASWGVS

[15] = biological target: 5-hydroxytryptamine receptor 1D (Homo sapiens) (UniProt P28221)
5-hydroxytryptamine receptor 1D (Homo sapiens), sequence (P28221 whole entry): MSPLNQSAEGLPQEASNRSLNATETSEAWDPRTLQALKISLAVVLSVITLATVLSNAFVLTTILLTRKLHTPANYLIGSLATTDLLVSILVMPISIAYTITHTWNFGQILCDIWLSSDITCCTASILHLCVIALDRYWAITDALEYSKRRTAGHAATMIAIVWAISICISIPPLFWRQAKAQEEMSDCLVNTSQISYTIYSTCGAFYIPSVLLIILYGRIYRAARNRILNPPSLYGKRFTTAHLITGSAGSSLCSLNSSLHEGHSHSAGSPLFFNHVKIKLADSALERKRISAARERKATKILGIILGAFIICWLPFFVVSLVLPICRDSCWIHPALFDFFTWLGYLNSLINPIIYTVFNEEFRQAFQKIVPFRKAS

[16] = biological target: T5, Muscarinic acetylcholine receptor M4 (Homo sapiens) (UniProt P08173)
T5 sequence (whole entry): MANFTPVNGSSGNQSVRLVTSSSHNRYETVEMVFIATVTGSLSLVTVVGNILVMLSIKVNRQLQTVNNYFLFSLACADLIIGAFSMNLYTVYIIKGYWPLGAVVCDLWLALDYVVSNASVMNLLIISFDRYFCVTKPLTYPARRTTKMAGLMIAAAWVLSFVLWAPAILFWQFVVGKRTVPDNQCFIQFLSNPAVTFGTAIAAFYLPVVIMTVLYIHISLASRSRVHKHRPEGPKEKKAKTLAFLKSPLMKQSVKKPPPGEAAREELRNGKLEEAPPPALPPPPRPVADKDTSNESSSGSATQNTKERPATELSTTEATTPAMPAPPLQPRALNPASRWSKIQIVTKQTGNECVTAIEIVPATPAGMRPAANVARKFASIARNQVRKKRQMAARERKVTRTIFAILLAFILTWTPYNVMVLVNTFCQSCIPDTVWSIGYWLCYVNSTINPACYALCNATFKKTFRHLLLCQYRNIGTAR

| Compound | inhibition [1] [%] | inhibition [2] [%] | inhibition [3] [%] | inhibition [4] [%] | inhibition [5] [%] | inhibition [6] [%] | inhibition [7] [%] | inhibition [8] [%] | inhibition [9] [%] | inhibition [10] [%] | inhibition [11] [%] | inhibition [12] [%] | inhibition [13] [%] | inhibition [14] [%] | inhibition [15] [%] | inhibition [16] [%] |
| --- | --- | --- | --- | --- | --- | --- | --- | --- | --- | --- | --- | --- | --- | --- | --- | --- |
| COc1cccc([C@@H](C)NCCCc2ccccc2Cl)c1 | 54.6 | 8.31 | 22.4 | 70.6 | 96.6 | 15.9 | 45.1 | 0 | 32.2 | 79.9 | 48.8 | 26.1 | 61.2 | 50.2 | 33.7 | 27.2 |
| CCc1ccc(OCc2ccccc2C(=O)Nc2ccc3nc(C)cc(N)c3c2)cc1 | 9.8 | 39.1 | 46.6 | 7.44 | 74.8 | 3.07 | 42.2 | 36.6 | 21.3 | 40.9 | 46.5 | 36 | 52.3 | 68.6 | 59.3 | 65.2 |
